Source: BindingDB's records for doi:10.1021/jm00171a003 (Merck, 1990)
Numbered stars: 1 amine (or outer) side, 2 acyl side, 3 side chain; on linkers, the order of the positions; unused ones are H or OH. Square brackets hold non-standard residues; d marks the D form. Peptide text beside a SMILES is read from it. X6 = CN(C)C[C@H]1C=NN([*:1])[C@H](C(=O)[*:2])C1; X5 = O=C1CC[C@@H](C(=O)[*:2])N([*:1])N1; dPiz(1,6-dehydro) = O=C(O)[C@H]1CCC=NN1; X2 = CN1CCC[C@@H](C(=O)[*:2])N1[*:1]; X1 = CN1CCC[C@H](C(=O)[*:2])N1[*:1]; X7 = O=C([C@@H]1C=CC=NN1[*:1])[*:2]; X3 = O=C([C@H]1CCCNN1[*:1])[*:2]; dNMeF = CN[C@H](Cc1ccccc1)C(=O)O

Columns and labels:
[1] = target: Vasopressin V1a receptor (Rattus norvegicus) (UniProt P30560); assay: Binding affinity against Vasopressin receptor in rat liver
[2] = target: Vasopressin V1a receptor (Rattus norvegicus) (UniProt P30560); assay: as above; remark: listed apart in the source

Vasopressin V1a receptor (Rattus norvegicus), sequence (P30560 whole entry, looked up): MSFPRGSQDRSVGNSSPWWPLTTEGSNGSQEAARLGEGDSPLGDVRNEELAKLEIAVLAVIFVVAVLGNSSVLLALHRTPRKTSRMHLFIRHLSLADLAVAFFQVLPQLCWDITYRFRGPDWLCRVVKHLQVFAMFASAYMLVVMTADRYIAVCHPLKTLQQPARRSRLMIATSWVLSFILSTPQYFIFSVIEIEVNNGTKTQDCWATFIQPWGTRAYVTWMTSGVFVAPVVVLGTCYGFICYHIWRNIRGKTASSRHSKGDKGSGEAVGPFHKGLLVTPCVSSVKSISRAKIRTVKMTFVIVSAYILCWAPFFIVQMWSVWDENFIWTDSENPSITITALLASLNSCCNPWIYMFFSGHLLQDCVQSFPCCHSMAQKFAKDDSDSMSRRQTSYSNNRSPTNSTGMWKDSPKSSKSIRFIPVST

| Ki [1] [nM] | Ki [2] [nM] | SMILES |
| --- | --- | --- |
| 140 |  | CC[C@@H](C)[C@@H]1NC(=S)[C@@H](Cc2ccccc2)NC(=O)[C@@H]2CCCN2C(=O)[C@@H](Cc2ccccc2)N(C)C(=O)[C@@H]2CCC=NN2C(=O)[C@H]2CCC=NN2C1=O |
|  | 2200 | CC[C@H](C)[C@H]1C(=O)N2NCCC[C@@H]2C(=O)N2NCCC[C@H]2C(=O)N(C)[C@H](Cc2ccccc2)C(=O)N2CCC[C@H]2C(=O)N[C@H](Cc2ccccc2)C(=O)N1O |
|  | > 30000 | CC[C@H](C)[C@@H]1NC[C@@H](Cc2ccccc2)NC(=O)[C@@H]2CCCN2C(=O)[C@@H](Cc2ccccc2)N(C)C(=O)[C@@H]2CCC=NN2C(=O)[C@H]2CCC=NN2C1=O |
|  | 7400 | CC[C@H](C)[C@@H]1NC(=O)[C@@H](Cc2ccccc2)NC(=O)[C@@H]2CCCN2C(=O)[C@@H](Cc2ccccc2)N(C)C(=O)[C@@H]2CCCN(C)N2C(=O)[C@H]2CCCN(C)N2C1=O (cyclo(I[X1][X2][dNMeF]P[dF])) |
| 3900 |  | CC[C@H](C)[C@@H]1NC(=O)[C@@H](Cc2ccccc2)NC(=O)[C@@H]2CCCN2C(=O)[C@@H](Cc2ccccc2)N(C)C(=O)[C@@H]2CCC(=O)NN2C(=O)[C@H]2CCCNN2C1=O (cyclo(I[X3][X5][dNMeF]P[dF])) |
| 1600 |  | CC[C@H](C)[C@@H]1NC(=O)[C@@H](Cc2ccccc2)NC(=O)[C@@H]2CCCN2C(=O)[C@@H](Cc2ccccc2)N(C)C(=O)[C@@H]2CCC(=O)NN2C(=O)[C@H]2CCC=NN2C1=O (cyclo(I[dPiz(1,6-dehydro)][X5][dNMeF]P[dF])) |
|  | 550 | CC[C@H](C)[C@@H]1NC(=O)[C@@H](Cc2ccccc2)NC(=O)[C@@H]2CCCN2C(=O)[C@@H](Cc2ccccc2)N(C)C(=O)[C@@H]2C[C@@H](CN(C)C)C=NN2C(=O)[C@H]2CCC=NN2C1=O (cyclo(I[dPiz(1,6-dehydro)][X6][dNMeF]P[dF])) |
|  | 390 | CC[C@H](C)[C@@H]1NC(=O)[C@@H](Cc2ccccc2)NC(=O)[C@@H]2CCCN2C(=O)[C@@H](Cc2ccccc2)N(C)C(=O)[C@@H]2C=CC=NN2C(=O)[C@H]2CCC=NN2C1=O (cyclo(I[dPiz(1,6-dehydro)][X7][dNMeF]P[dF])) |
